Measurements published in patent US20260007758A1, “SO[…]-2 RECEPTOR (SST2R) NON-PEPTIDE DRUG CONJUGATES AND USES THEREOF” (Crinetics Pharmaceuticals, Inc., priority 2024, published 2026).
pEC50: −log10 of the molar value.

Legend:
Assay type in all cases: cell-based
[1] = tested on: NCI-H524 human small cell lung cancer cells; assay: H524 assay: inhibition of cell proliferation (CellTiter Glo); conditions: 2 h treatment, washout, additional 70 h incubation
How it was run: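 NCI-H524 cells were exposed for 2 h to NDC in an 11-point two-fold series starting at 1 uM. The drug was then washed out and cells grew a further 70 h. CellTiter Glo luminescence gave % inhibition versus untreated control, and IC50 came from a four-parameter nonlinear regression.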

SST2 = target: T1, SST2 (Homo sapiens, UniProt P30874); assay: PathHunter CHO-K1 SST2 Internalization Assay; conditions: PathHunter CHO-K1 SST2 cells; 90 min at 37 C; luminescence; read-out: Internalization EC50
T1 construct: host or cells: PathHunter CHO-K1 SST2 cells
T1 sequence (P30874 whole entry): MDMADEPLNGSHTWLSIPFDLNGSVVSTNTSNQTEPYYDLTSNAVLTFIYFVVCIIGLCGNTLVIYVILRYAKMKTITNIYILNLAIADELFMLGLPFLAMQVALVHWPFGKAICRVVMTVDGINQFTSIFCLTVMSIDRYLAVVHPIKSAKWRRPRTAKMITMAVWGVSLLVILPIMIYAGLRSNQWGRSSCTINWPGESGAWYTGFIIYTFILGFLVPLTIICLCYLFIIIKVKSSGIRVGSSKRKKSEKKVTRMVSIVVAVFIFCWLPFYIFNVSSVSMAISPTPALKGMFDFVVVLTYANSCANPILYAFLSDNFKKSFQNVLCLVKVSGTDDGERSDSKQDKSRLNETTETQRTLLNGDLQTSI
How it was run: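 CHO-K1 cells expressing human SST2, 2500 cells/well, grown 48 h, then exposed 90 min at 37 C to 11-point 1:3 NDC dilutions (final top 10 uM). Beta-Glo luminescence after 60 min at room temperature; four-parameter IC50, duplicate mean, background-corrected.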

[2] = target: T2, human somatostatin receptor subtype 2 (Homo sapiens, UniProt P30874); assay: Functional assay for SSTR2 agonists (HTRF cAMP); conditions: CHO-K1 cells stably expressing human SST2; NKH477-stimulated cAMP; 20 min at 37 C; read-out: hSST2 cAMP Avg EC50
T2 construct: expressed in transfected cells
T2 sequence (P30874 whole entry): as above
How it was run: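 CHO-K1 cells stably expressing human SSTR2 treated with compound (typically 0-10,000 nM final) for 20 min at 37 °C. Lysate cAMP measured by HTRF (665/620 nm ratio), converted via standard curve; EC50 from cAMP vs concentration.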

| SMILES | pEC50 [1] | pEC50 (SST2) | pEC50 [2] |
| --- | --- | --- | --- |
| CC[C@H](C)[C@@H]([C@@H](CC(=O)N1CCC[C@H]1[C@H](OC)[C@@H](C)C(=O)N[C@H](C)[C@@H](O)c1ccccc1)OC)N(C)C(=O)[C@@H](NC(=O)[C@H](C(C)C)N(C)C(=O)OCc1ccc(NC(=O)[C@H](C)NC(=O)[C@@H](NC(=O)[C@@H](CS(=O)(=O)O)NC(=O)CCOCCC(=O)NCCNc2ncc(-c3cc(C)cc(F)c3)c(N3CCC(N)CC3)c2-c2nc3ccc(Cl)cc3[nH]2)C(C)C)cc1C(=O)N1CC(C(=O)O)C1)C(C)C [Compound 78] | 6.46 | 8.06 | 9.66 |
| CC[C@H](C)[C@@H]([C@@H](CC(=O)N1CCC[C@H]1[C@H](OC)[C@@H](C)C(=O)N[C@H](C)[C@@H](O)c1ccccc1)OC)N(C)C(=O)[C@@H](NC(=O)[C@H](C(C)C)N(C)C(=O)OCc1ccc(NC(=O)[C@H](CCCNC(N)=O)NC(=O)[C@@H](NC(=O)[C@H](CCC(=O)O)NC(=O)CCOCCC(=O)NCCNc2ncc(-c3cc(C)cc(F)c3)c(N3CCC(N)CC3)c2-c2nc3cc(F)cc(OC)c3[nH]2)C(C)C)cc1C(=O)NCCN)C(C)C [Compound 79] | 8.11 | 8.29 | 9.92 |
| CC[C@H](C)[C@@H]([C@@H](CC(=O)N1CCC[C@H]1[C@H](OC)[C@@H](C)C(=O)N[C@H](C)[C@@H](O)c1ccccc1)OC)N(C)C(=O)[C@@H](NC(=O)[C@H](C(C)C)N(C)C(=O)OCc1ccc(NC(=O)[C@H](CCCNC(N)=O)NC(=O)[C@@H](NC(=O)[C@H](CCC(=O)O)NC(=O)CCOCCC(=O)NCCNc2ncc(-c3cc(C)cc(F)c3)c(N3CC[C@H]4NCCC[C@@H]4C3)c2-c2nc3ccc(Cl)cc3[nH]2)C(C)C)cc1C(=O)NCCN)C(C)C [Compound 80] | 6.27 | 6.04 | 6.74 |
| CC[C@H](C)[C@@H]([C@@H](CC(=O)N1CCC[C@H]1[C@H](OC)[C@@H](C)C(=O)N[C@H](C)[C@@H](O)c1ccccc1)OC)N(C)C(=O)[C@@H](NC(=O)[C@H](C(C)C)N(C)C(=O)OCc1ccc(NC(=O)[C@H](CCCNC(N)=O)NC(=O)[C@@H](NC(=O)C2(C(=O)NCCOCCC(=O)NCCNc3ncc(-c4cc(C)cc(F)c4)c(N4CCC(N)CC4)c3-c3nc4ccc(Cl)cc4[nH]3)CCC2)C(C)C)cc1C(=O)NCCN)C(C)C [Compound 81] | 8.70 | 8.00 | 10.03 |
| CC[C@H](C)[C@@H]([C@@H](CC(=O)N1CCC[C@H]1[C@H](OC)[C@@H](C)C(=O)N[C@H](C)[C@@H](O)c1ccccc1)OC)N(C)C(=O)[C@@H](NC(=O)[C@H](C(C)C)N(C)C(=O)OCc1ccc(NC(=O)[C@H](C)NC(=O)[C@@H](NC(=O)C2(C(=O)NCCOCCC(=O)NCCNc3ncc(-c4cc(C)cc(F)c4)c(N4CCC(N)CC4)c3-c3nc4ccc(Cl)cc4[nH]3)CCC2)C(C)C)cc1C(=O)NCCN)C(C)C [Compound 82] | 8.18 | 7.89 | 9.59 |
| CC[C@H](C)[C@@H]([C@@H](CC(=O)N1CCC[C@H]1[C@H](OC)[C@@H](C)C(=O)N[C@H](C)[C@@H](O)c1ccccc1)OC)N(C)C(=O)[C@@H](NC(=O)[C@H](C(C)C)N(C)C(=O)OCc1ccc(NC(=O)[C@H](CCCNC(N)=O)NC(=O)[C@@H](NC(=O)CCOCCOCCC(=O)NCCNc2ncc(-c3cc(C)cc(F)c3)c(N3CCC(N)CC3)c2-c2nc3ccc(Cl)cc3[nH]2)C(C)C)cc1C(=O)NCCNC(=O)CCCCCCCCCCC(=O)O)C(C)C [Compound 83] | 6.51 | 8.15 | 9.28 |
| CC[C@H](C)[C@@H]([C@@H](CC(=O)N1CCC[C@H]1[C@H](OC)[C@@H](C)C(=O)N[C@H](C)[C@@H](O)c1ccccc1)OC)N(C)C(=O)[C@@H](NC(=O)[C@H](C(C)C)N(C)C(=O)OCc1ccc(NC(=O)[C@H](CCCNC(N)=O)NC(=O)[C@@H](NC(=O)[C@H](CCc2nnn[nH]2)NC(=O)CCOCCC(=O)NCCNc2ncc(-c3cc(C)cc(F)c3)c(N3CCC(N)CC3)c2-c2nc3ccc(Cl)cc3[nH]2)C(C)C)cc1C(=O)NCCN)C(C)C [Compound 84] | 6.24 | 8.42 | 9.55 |
| CC[C@H](C)[C@@H]([C@@H](CC(=O)N1CCC[C@H]1[C@H](OC)[C@@H](C)C(=O)N[C@H](C)[C@@H](O)c1ccccc1)OC)N(C)C(=O)[C@@H](NC(=O)[C@H](C(C)C)N(C)C(=O)OCc1ccc(NC(=O)[C@H](CCCNC(N)=O)NC(=O)[C@@H](NC(=O)[C@H](Cc2c[nH]c3ccccc23)NC(=O)CCOCCC(=O)NCCNc2ncc(-c3cc(C)cc(F)c3)c(N3CCC(N)CC3)c2-c2nc3ccc(Cl)cc3[nH]2)C(C)C)cc1C(=O)NCCN)C(C)C [Compound 85] | 7.14 | 8.44 | 9.14 |
| CC[C@H](C)[C@@H]([C@@H](CC(=O)N1CCC[C@H]1[C@H](OC)[C@@H](C)C(=O)N[C@H](C)[C@@H](O)c1ccccc1)OC)N(C)C(=O)[C@@H](NC(=O)[C@H](C(C)C)N(C)C(=O)OCc1ccc(NC(=O)[C@H](CCCNC(N)=O)NC(=O)[C@@H](NC(=O)CCOCCOCCOCCOCCC(=O)NCCNc2ncc(-c3cc(C)cc(F)c3)c(N3CCC(N)CC3)c2-c2nc3ccc(Cl)cc3[nH]2)C(C)C)cc1C(=O)NCC(=O)O)C(C)C [Compound 86] | 6.00 | 8.39 | 10.17 |
| CC[C@H](C)[C@@H]([C@@H](CC(=O)N1CCC[C@H]1[C@H](OC)[C@@H](C)C(=O)N[C@H](C)[C@@H](O)c1ccccc1)OC)N(C)C(=O)[C@@H](NC(=O)[C@H](C(C)C)N(C)C(=O)OCc1ccc(NC(=O)[C@H](CCCNC(N)=O)NC(=O)[C@@H](NC(=O)CCOCCC(=O)NCCNc2ncc(-c3cc(C)cc(F)c3)c(N3CCC(N)CC3)c2-c2nc3ccc(Cl)cc3[nH]2)C(C)C)cc1C(=O)NOC)C(C)C [Compound 87] | 6.22 | 8.34 | 10.00 |
| CC[C@H](C)[C@@H]([C@@H](CC(=O)N1CCC[C@H]1[C@H](OC)[C@@H](C)C(=O)N[C@H](C)[C@@H](O)c1ccccc1)OC)N(C)C(=O)[C@@H](NC(=O)[C@H](C(C)C)N(C)C(=O)OCc1ccc(NC(=O)[C@H](CCCNC(N)=O)NC(=O)[C@@H](NC(=O)CCOCCC(=O)NCCNc2ncc(-c3cc(C)cc(F)c3)c(N3CCC(N)CC3)c2-c2nc3ccc(Cl)cc3[nH]2)C(C)C)cc1C(=O)NOCCN)C(C)C [Compound 88] | 7.08 | 8.51 | 9.60 |
| CC[C@H](C)[C@@H]([C@@H](CC(=O)N1CCC[C@H]1[C@H](OC)[C@@H](C)C(=O)N[C@H](C)[C@@H](O)c1ccccc1)OC)N(C)C(=O)[C@@H](NC(=O)[C@H](C(C)C)N(C)C(=O)OCc1ccc(NC(=O)[C@H](CCCNC(N)=O)NC(=O)[C@@H](NC(=O)[C@H](CCC(=O)O)NC(=O)CCOCCC(=O)NCCNc2ncc(-c3cc(C)cc(F)c3)c(N3CCC(N)CC3)c2-c2nc3ccc(Cl)cc3[nH]2)C(C)C)cc1C(=O)NOC)C(C)C [Compound 89] | 5.96 | 8.44 | 9.24 |
| CC[C@H](C)[C@@H]([C@@H](CC(=O)N1CCC[C@H]1[C@H](OC)[C@@H](C)C(=O)N[C@H](C)[C@@H](O)c1ccccc1)OC)N(C)C(=O)[C@@H](NC(=O)[C@H](C(C)C)N(C)C(=O)OCc1ccc(NC(=O)[C@H](CCCNC(N)=O)NC(=O)[C@@H](NC(=O)[C@H](CCC(=O)O)NC(=O)CCOCCC(=O)NCCNc2ncc(-c3cc(C)cc(F)c3)c(N3CCC(N)CC3)c2-c2nc3ccc(Cl)cc3[nH]2)C(C)C)cc1C(=O)NOCCN)C(C)C [Compound 90] | 6.32 | 8.26 | 9.18 |
| CC[C@H](C)[C@@H]([C@@H](CC(=O)N1CCC[C@H]1[C@H](OC)[C@@H](C)C(=O)N[C@H](C)[C@@H](O)c1ccccc1)OC)N(C)C(=O)[C@@H](NC(=O)[C@H](C(C)C)N(C)C(=O)OCc1ccc(NC(=O)[C@H](CCCNC(N)=O)NC(=O)[C@@H](NC(=O)[C@H](CCC(=O)O)NC(=O)CCOCCC(=O)NCCNc2ncc(-c3cc(C)cc(F)c3)c(N3CCC(N)CC3)c2-c2nc3ccc(Cl)cc3[nH]2)C(C)C)cc1C(=O)N1CC(N)C1)C(C)C [Compound 91] | 6.00 | 8.60 | 9.34 |
| CC[C@H](C)[C@@H]([C@@H](CC(=O)N1CCC[C@H]1[C@H](OC)[C@@H](C)C(=O)N[C@H](C)[C@@H](O)c1ccccc1)OC)N(C)C(=O)[C@@H](NC(=O)[C@H](C(C)C)N(C)C(=O)OCc1ccc(NC(=O)[C@H](CCCNC(N)=O)NC(=O)[C@@H](NC(=O)C[C@@H](N)C(=O)NCCOCCC(=O)NCCNc2ncc(-c3cc(C)cc(F)c3)c(N3CCC(N)CC3)c2-c2nc3ccc(Cl)cc3[nH]2)C(C)C)c(O[C@@H]2O[C@H](C(=O)O)[C@@H](O)[C@H](O)[C@H]2O)c1)C(C)C [Compound 92] | 6.17 | 8.60 | 9.70 |
| CC[C@H](C)[C@@H]([C@@H](CC(=O)N1CCC[C@H]1[C@H](OC)[C@@H](C)C(=O)N[C@H](C)[C@@H](O)c1ccccc1)OC)N(C)C(=O)[C@@H](NC(=O)[C@H](C(C)C)N(C)C(=O)OCc1ccc(NC(=O)[C@H](C)NC(=O)[C@@H](NC(=O)CCOCCN2CCC(C(=O)NCCNc3ncc(-c4cc(C)cc(F)c4)c(N4CCC(N)CC4)c3-c3nc4ccc(Cl)cc4[nH]3)CC2)C(C)C)c(O[C@@H]2O[C@H](C(=O)O)[C@@H](O)[C@H](O)[C@H]2O)c1)C(C)C [Compound 93] | 6.92 | 7.48 | 9.55 |
